Experimental data reported in ChEMBL document CHEMBL1212745, “Structure of the heme biosynthetic Pseudomonas aeruginosa porphobilinogen synthase in complex with the antibiotic alaremycin” (Antimicrob Agents Chemother, 2010).
Values after ≈ are worked out from the molar mass of the structure shown. Active and inactive are the calls of the source. The rule behind the calls is not given here.

What was measured:
Streptomyces coelicolor = experiment: Antimicrobial activity against Streptomyces coelicolor DMS 40233 up to 24 hrs by microdilution method; type: functional; settings: DMS 40233, 24 h
[1] = test system: Escherichia coli str. K-12 substr. DH10B; experiment: Inhibition of Escherichia coli porphobilinogen synthase assessed as enzyme activity at 10 mM relative to control; set-up: scale not given: the % may be the effect or the level left
[2] = Inhibition of Pseudomonas aeruginosa PAO1 porphobilinogen synthase after 60 mins by spectrophotometry
[3] = molecular target: T1, Delta-aminolevulinic acid dehydratase (Bacillus subtilis) (UniProt P30950); experiment: Inhibition of Bacillus subtilis JH642 porphobilinogen synthase assessed as enzyme activity at 5 mM relative to control; set-up: scale not given: the % may be the effect or the level left
T1 sequence (whole entry): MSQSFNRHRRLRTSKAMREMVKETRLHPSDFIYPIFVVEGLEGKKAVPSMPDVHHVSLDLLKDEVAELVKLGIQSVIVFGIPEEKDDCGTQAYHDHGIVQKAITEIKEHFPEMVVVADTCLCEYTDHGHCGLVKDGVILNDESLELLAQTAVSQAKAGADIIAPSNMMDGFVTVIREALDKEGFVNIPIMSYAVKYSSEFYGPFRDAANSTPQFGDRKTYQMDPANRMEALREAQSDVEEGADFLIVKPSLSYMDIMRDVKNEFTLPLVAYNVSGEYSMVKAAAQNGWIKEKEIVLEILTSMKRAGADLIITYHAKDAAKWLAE

Escherichia coli [4] = experiment: Inhibition of Escherichia coli CSA1 porphobilinogen synthase assessed as enzyme activity at 5 mM relative to control; set-up: scale not given: the % may be the effect or the level left
Escherichia coli [5] = experiment: Antimicrobial activity against Escherichia coli CSA1 at =< 40 mg/ml up to 24 hrs by microdilution method in presence of 5-aminolaevulinic acid and heme; type: functional, organism-based
Escherichia coli [6] = experiment: Antimicrobial activity against Escherichia coli CSA1 at =< 40 mg/ml up to 24 hrs by microdilution method in absence of 5-aminolaevulinic acid; type: functional, organism-based
Escherichia coli [7] = experiment: Antimicrobial activity against Escherichia coli CSA1 at =< 40 mg/ml up to 24 hrs by microdilution method in presence of heme and absence of 5-aminolaevulinic acid; type: functional, organism-based
Escherichia coli [8] = experiment: Antimicrobial activity against Escherichia coli CSA1 at =< 40 mg/ml up to 24 hrs by microdilution method in presence of 5-aminolaevulinic acid; type: functional, organism-based
[9] = test system: Pseudomonas aeruginosa PAO1; experiment: Ratio of Kcat to Km for Pseudomonas aeruginosa PAO1 porphobilinogen synthase
[10] = molecular target: T2, Delta-aminolevulinic acid dehydratase (Streptomyces avermitilis) (UniProt Q82E74); experiment: Inhibition of Streptomyces avermitilis DSM 46492 porphobilinogen synthase assessed as enzyme activity at 5 mM relative to control; set-up: scale not given: the % may be the effect or the level left
T2 sequence (whole entry): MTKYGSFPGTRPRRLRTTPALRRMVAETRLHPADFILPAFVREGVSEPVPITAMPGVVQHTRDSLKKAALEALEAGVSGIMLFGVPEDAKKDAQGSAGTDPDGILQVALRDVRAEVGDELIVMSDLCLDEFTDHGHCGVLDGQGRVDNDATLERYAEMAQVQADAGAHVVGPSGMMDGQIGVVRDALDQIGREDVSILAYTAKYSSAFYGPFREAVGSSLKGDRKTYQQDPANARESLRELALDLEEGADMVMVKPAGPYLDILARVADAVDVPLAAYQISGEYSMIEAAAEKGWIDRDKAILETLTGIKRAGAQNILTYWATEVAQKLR

[11] = Inhibition of Pseudomonas aeruginosa PAO1 porphobilinogen synthase by Lineweaver-Burke plot analysis
[12] = Antimicrobial activity against Streptomyces sp. A012304 up to 24 hrs by microdilution method; type: functional; settings: Streptomyces sp. A012304, 24 h
Bacillus subtilis = experiment: Antimicrobial activity against Bacillus subtilis JH642 up to 24 hrs by microdilution method; type: functional; settings: JH642, 24 h
Pseudomonas aeruginosa = experiment: Antimicrobial activity against Pseudomonas aeruginosa PAO1 up to 24 hrs by microdilution method; type: functional; settings: PAO1, 24 h
[13] = Inhibition of Methanosarcina barkeri porphobilinogen synthase by Lineweaver-Burke plot analysis
[14] = test system: Pseudomonas aeruginosa PAO1; experiment: Inhibition of Pseudomonas aeruginosa PAO1 porphobilinogen synthase assessed as enzyme activity at 10 mM relative to control; set-up: scale not given: the % may be the effect or the level left
Streptomyces avermitilis = experiment: Antimicrobial activity against Streptomyces avermitilis DSM 46492 up to 24 hrs by microdilution method; type: functional; settings: DSM 46492, 24 h
Methanosarcina barkeri [15] = experiment: Ratio of Kcat to Km for Methanosarcina barkeri porphobilinogen synthase
[16] = molecular target: T1, Delta-aminolevulinic acid dehydratase (Bacillus subtilis); experiment: Inhibition of Bacillus subtilis JH642 porphobilinogen synthase assessed as enzyme activity at 10 mM relative to control; set-up: scale not given: the % may be the effect or the level left
[17] = test system: Pseudomonas aeruginosa PAO1; experiment: Inhibition of Pseudomonas aeruginosa PAO1 porphobilinogen synthase assessed as enzyme activity at 5 mM relative to control; set-up: scale not given: the % may be the effect or the level left
Streptomyces sp. A012304 [18] = experiment: Inhibition of Streptomyces sp. A012304 porphobilinogen synthase assessed as enzyme activity at 5 mM relative to control; set-up: scale not given: the % may be the effect or the level left
Escherichia coli [19] = experiment: Inhibition of Escherichia coli CSA1 porphobilinogen synthase assessed as enzyme activity at 10 mM relative to control; set-up: scale not given: the % may be the effect or the level left
Methanosarcina barkeri [20] = experiment: Activity at Methanosarcina barkeri porphobilinogen synthase
Escherichia coli [21] = experiment: Antimicrobial activity against Escherichia coli CSA1 up to 24 hrs by microdilution method; type: functional; settings: CSA1, 24 h
[22] = molecular target: T3, Delta-aminolevulinic acid dehydratase (Streptomyces coelicolor) (UniProt P54919); experiment: Inhibition of Streptomyces coelicolor DMS 40233 porphobilinogen synthase assessed as enzyme activity at 5 mM relative to control; set-up: scale not given: the % may be the effect or the level left
T3 sequence (whole entry): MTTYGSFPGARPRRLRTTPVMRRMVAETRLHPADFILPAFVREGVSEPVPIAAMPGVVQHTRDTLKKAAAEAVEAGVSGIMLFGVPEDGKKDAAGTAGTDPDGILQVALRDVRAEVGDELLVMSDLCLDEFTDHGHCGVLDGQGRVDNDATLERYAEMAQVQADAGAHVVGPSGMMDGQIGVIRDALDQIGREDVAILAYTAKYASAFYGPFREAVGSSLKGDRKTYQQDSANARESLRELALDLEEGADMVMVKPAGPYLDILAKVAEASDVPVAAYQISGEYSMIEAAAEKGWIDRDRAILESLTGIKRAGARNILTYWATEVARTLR

[23] = molecular target: T2, Delta-aminolevulinic acid dehydratase (Streptomyces avermitilis); experiment: Inhibition of Streptomyces avermitilis DSM 46492 porphobilinogen synthase assessed as enzyme activity at 10 mM relative to control; set-up: scale not given: the % may be the effect or the level left
Escherichia coli [24] = experiment: Antimicrobial activity against Escherichia coli DH10B up to 24 hrs by microdilution method; type: functional; settings: K-12 DH10B
Priestia megaterium = experiment: Antimicrobial activity against Bacillus megaterium DSM319 up to 24 hrs by microdilution method; type: functional; settings: DSM 319, 24 h
[25] = Inhibition of Methanosarcina barkeri porphobilinogen synthase after 60 mins by spectrophotometry
[26] = test system: Bacillus megaterium DSM 319; experiment: Inhibition of Bacillus megaterium DSM319 porphobilinogen synthase assessed as enzyme activity at 5 mM relative to control; set-up: scale not given: the % may be the effect or the level left
[27] = test system: Escherichia coli str. K-12 substr. DH10B; experiment: Inhibition of Escherichia coli porphobilinogen synthase assessed as enzyme activity at 5 mM relative to control; set-up: scale not given: the % may be the effect or the level left
[28] = test system: Pseudomonas aeruginosa PAO1; experiment: Activity at Pseudomonas aeruginosa PAO1 porphobilinogen synthase
Streptomyces sp. A012304 [29] = experiment: Inhibition of Streptomyces sp. A012304 porphobilinogen synthase assessed as enzyme activity at 10 mM relative to control; set-up: scale not given: the % may be the effect or the level left
[30] = molecular target: T3, Delta-aminolevulinic acid dehydratase (Streptomyces coelicolor); experiment: Inhibition of Streptomyces coelicolor DMS 40233 porphobilinogen synthase assessed as enzyme activity at 10 mM relative to control; set-up: scale not given: the % may be the effect or the level left
[31] = test system: Bacillus megaterium DSM 319; experiment: Inhibition of Bacillus megaterium DSM319 porphobilinogen synthase assessed as enzyme activity at 10 mM relative to control; set-up: scale not given: the % may be the effect or the level left

MIC (Streptomyces coelicolor): 8 mM (≈ 1480 µg/mL)
Activity [1]: < 1%
IC50 [2]: 2100 µM
Activity [3]: 61%
Activity (Escherichia coli [4]): 36%
kcat/Km [9]: 50300 M⁻¹ s⁻¹
Activity [10]: 68%
Ki [11]: 1330 µM
MIC [12]: > 20 mM
MIC (Bacillus subtilis): 14 mM (≈ 2590 µg/mL)
MIC (Pseudomonas aeruginosa): 12 mM (≈ 2220 µg/mL)
Ki [13]: 1510 µM
Activity [14]: 25%
MIC (Streptomyces avermitilis): 8 mM (≈ 1480 µg/mL)
kcat/Km (Methanosarcina barkeri [15]): 170 M⁻¹ s⁻¹
Activity [16]: 30%
Activity [17]: 92%
Activity (Streptomyces sp. A012304 [18]): 90%
Activity (Escherichia coli [19]): < 1%
Km (Methanosarcina barkeri [20]): 0.07 mM
kcat (Methanosarcina barkeri [20]): 0.012 s⁻¹
MIC (Escherichia coli [21]): 10 mM (≈ 1850 µg/mL)
Activity [22]: 77%
Activity [23]: < 1%
MIC (Escherichia coli [24]): 4 mM (≈ 741 µg/mL)
MIC (Priestia megaterium): 4 mM (≈ 741 µg/mL)
IC50 [25]: 2200 µM
Activity [26]: 3%
Activity [27]: 30%
Km [28]: 0.32 mM
kcat [28]: 16.1 s⁻¹
Activity (Streptomyces sp. A012304 [29]): 79%
Activity [30]: 22%
Activity [31]: < 1%
Compound: C=C(NC(C)=O)C(=O)CCC(=O)O [ALAREMYCIN]
Activity (Escherichia coli [5]): inactive
Activity (Escherichia coli [6]): Active
Activity (Escherichia coli [7]): inactive
Activity (Escherichia coli [8]): Active
